Reference: patent US12359173B2, “Serum-free and xeno-free culture medium for expanding mesenchymal stem cells” (NUWACELL BIOTECHNOLOGIES CO., LTD., priority 2023, dated 2025)

System: iMSCs
Experiment: iMSC expansion, seeded at 1000 cells/well, day 10 morphology and cell number
Assay type: cell-based
Description: Cryopreserved iMSCs (RC01005, Nuwacell Co., Ltd.) were seeded in 6-well plates at 1000 cells/well in M1 medium to thaw the cells. The medium was replaced 24 h later with 2 ml/well of the following medium: M1; or M2 (5% HPLT) further supplemented with or without one or more growth factors (F: FGF2 (10 ng/ml, Nuwacell Co., Ltd.); P: PDFG-BB (10 ng/ml, Cat. No.: 100-14B-100, Peprotech); T: TGFβ1 (1 ng/ml, Cat. No.: 100-21, Peprotech)) in the absence or presence of hydrocortisone (1 μM, Cat. No.: 4098, Tocris). […] The medium was changed with the same medium every three days. On day 10 of culture, the cells were digested by solase (RP01021, Nuwacell Co., Ltd.) for 3 min and collected, and then centrifugated, and with the supernatant removed, resuspended in the corresponding medium, and the number of iMSC cells was counted by cell viability analyzer (Vi-CELLTMXR, BECKMAN COULTER) (FIG. 5).

Row | Molecule | effect of addition on iMSC proliferation (Example 5, hydrocortisone 1 μM added to M2 (5% HPLT)) | effect of addition to M3 on iMSC growth (Example 13, 4 mg/L dialyzed HSA, 25 μg/ml heparin sodium, FIG. 13)
1 | C[C@]12CCC(=O)C=C1CC[C@@H]1[C@@H]2[C@@H](O)C[C@@]2(C)[C@H]1CC[C@]2(O)C(=O)CO [hydrocortisone] | could promote the iMSC proliferation | 
2 | heparin sodium |  | could further promote iMSC growth
